Data published in US4895846A, “Pharmaceutically useful dihydropyridinyldicarboxylate amides and esters incorporating arylpiperazinylalkyl moieties” (Bristol-Myers Company, priority 1987, dated 1990).
Converted amounts (≈) assume the structure as drawn.

How the values were obtained:
[1] = system: normotensive and spontaneously hypertensive conscious rats; assay: Oral administration to normotensive and spontaneously hypertensive conscious rats, mean arterial blood pressure; type: in vivo, rat; details: for maximal mean arterial blood pressure reduction: oral
Experimental: In vivo testing included vasodilating results in the ganglion-blocked, angiotensin-II supported rat and antihypertensive screening in either the spontaneous hypertensive rat (SHR) or DOCA salt rats. In general, vasodilating activity paralleled calcium blocking activity for members of the instant series. […] A most preferred compound, BMY 20064 [drawing 21] was administered orally to both normotensive and spontaneously hypertensive conscious rats. Doses of 1 and 10 mg/kg elicited maximal mean arterial blood pressure reductions of 25 and 53 mmHg, respectively, in the normotensive rat group and 34 and 100 mmHg, respectively, in the spontaneously hypertensive rat group.

[2] = system: blood platelets in platelet rich plasma; assay: Collagen aggregation of blood platelets in platelet rich plasma; type: cell-based; details: Oryctolagus cuniculus; platelet rich plasma (rabbit)

| Compound | onset of mean arterial blood pressure response ([1]; both groups (normotensive and SHR), oral 1 and 10 mg/kg) [min] | persistence of mean arterial blood pressure response ([1]; both groups, after the higher dose (10 mg/kg oral)) [h] | maximal mean arterial blood pressure reduction ([1]; normotensive conscious rats, 1 mg/kg) [mmHg] | maximal mean arterial blood pressure reduction ([1]; normotensive conscious rats, 10 mg/kg) [mmHg] | maximal mean arterial blood pressure reduction ([1]; spontaneously hypertensive conscious rats, 1 mg/kg) [mmHg] | maximal mean arterial blood pressure reduction ([1]; spontaneously hypertensive conscious rats, 10 mg/kg) [mmHg] | EC50 [2] [µg/mL] |
| --- | --- | --- | --- | --- | --- | --- | --- |
| COC(=O)C1=C(C)NC(C)=C(C(=O)OCCCN2CCN(c3ccccc3OC)CC2)C1c1cccc([N+](=O)[O-])c1 (stereo not drawn) [BMY 20064] | < 10 | > 4 | 25 | 53 | 34 | 100 | 11 (≈ 19.5 µM) |
| COC(=O)C1=C(C)NC(C)=C(C(=O)OC)C1c1ccccc1[N+](=O)[O-] [Nifedipine, 4-(2'-nitrophenyl)-2,6-dimethyl-3,5-dicarbomethoxy-1,4-dihydropyridine] | – | – | – | – | – | – | 176 (≈ 508 µM) |
| COc1ccc(CCN(C)CCCC(C#N)(c2ccc(OC)c(OC)c2)C(C)C)cc1OC (stereo not drawn) [Verapamil] | – | – | – | – | – | – | 151 (≈ 332 µM) |
